In patent US8198273B2, “Compounds and methods for kinase modulation, and indications therefor” (Plexxikon Inc., priority 2009, dated 2012):

Tests used:
[1] = molecular target: B-Raf V600E (Homo sapiens, UniProt P15056, V600E); test: B-Raf V600E biochemical kinase inhibition (AlphaScreen, biotin-MEK1 substrate); settings: 100 μM ATP
Method: Compounds to be tested are diluted in dimethyl sulfoxide to a concentration of 0.1 mM. These are serially diluted 15 μL into 30 μL of dimethyl sulfoxide seven times in 96 well plates for a total of 8 dilution points, and for each dilution point 1 μL is added to a well of an assay plate. […] The reaction is started with addition of 10 μL of 200 μM ATP (i.e. final 100 μM ATP). […] The plates are incubated for 3 hours at room temperature and read on Envision reader (Perkin Elmer). […] The signal vs. compound concentration is used to determine the IC50.

[2] = molecular target: CYP2C19 (Homo sapiens, UniProt P33261); test: CYP2C19 inhibition (fluorescent substrate); type: in vitro ADME; settings: CYP2C19, CEC substrate; read-out: Cyp IC50 2C19
Chain of CYP2C19 (P33261 whole entry): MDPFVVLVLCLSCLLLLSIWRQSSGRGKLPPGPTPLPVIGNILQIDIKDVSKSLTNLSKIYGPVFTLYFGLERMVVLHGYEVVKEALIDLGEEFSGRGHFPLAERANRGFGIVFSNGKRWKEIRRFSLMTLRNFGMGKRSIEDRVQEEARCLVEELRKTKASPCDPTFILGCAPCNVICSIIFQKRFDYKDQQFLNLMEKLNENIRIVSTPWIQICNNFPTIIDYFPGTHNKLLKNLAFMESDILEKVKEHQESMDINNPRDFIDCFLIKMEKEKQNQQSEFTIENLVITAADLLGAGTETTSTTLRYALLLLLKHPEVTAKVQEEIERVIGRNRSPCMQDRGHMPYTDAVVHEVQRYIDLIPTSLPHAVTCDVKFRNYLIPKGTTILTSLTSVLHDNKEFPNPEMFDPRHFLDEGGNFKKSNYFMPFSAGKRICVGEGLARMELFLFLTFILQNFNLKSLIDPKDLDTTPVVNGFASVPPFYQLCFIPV
Method: (§1) CYP (Cytochrome P450) enzymes are the major drug metabolizing enzymes present in the liver. The inhibition of CYP enzyme activity (IC50) for each of CYP1A2, CYP2C19, CYP2C9, CYP2D6, CYP3A4(BFC) and CYP3A4(BQ) is determined for compounds, where inhibition of metabolism of a known substrate leads to a decrease in the fluorescence of the metabolized product. The fluorescence of the product is monitored as a function of compound concentration.
(§2) Compounds are dissolved in dimethyl sulfoxide to a concentration of 100 mM. These are diluted 1 μL into 82 μL of acetonitrile. […] These are then serially diluted 1:1 (160 μL to 160 μL co-factor mix) for a total of 10 points. A 10 μL aliquot of this final mixture is dispensed into 384 well assay plates and incubated for 10 minutes at 37° C. […] Assay plates are incubated at 37° C. […] The signal versus compound concentration is used to determine the IC50. The enzymes and substrates for this assay are obtained from BD Biosciences.

[3] = Relative solubility by turbidity in aqueous buffers of varying pH; type: physicochemical; settings: for turbidity threshold (L, M, H) 7.4: HEPES pH 7.4; for turbidity threshold (L, M, H) 4.5: SIF pH 4.5; for turbidity threshold (L, M, H) 6.8: SIF pH 6.8; for turbidity threshold (L, M, H) 1.4: buffer pH 1.4 (SGF)
Method: As an indication of relative solubility, the turbidity of compounds in aqueous solutions is assessed. To assess possible compound properties in different physiological compartments, such as stomach, intestine, and blood, a series of aqueous buffers with varying pH is used. Thus each compound is diluted into four different physiologically relevant buffers and solution turbidity is measured by spectrophotometry.
Compounds are dissolved at a concentration of 25 mM in dimethyl sulfoxide, then serially diluted 1:1 into a 96 well plate, diluting 10 times in pure dimethyl sulfoxide, with the final well of each row a dimethyl sulfoxide blank. In an assay plate, 99 μL of appropriate buffer is added to each well, and 1 μL of each sample dilution is added to the buffer, achieving a range of final total concentrations in aqueous solutions having different pH. The buffers used are Simulated Gastric Fluid (SGF-pH 1.5) 0.5M NaCl, pH 1.5; Simulated Intestinal fluid (SIF-pH 4.5 and pH 6.8) 0.05M NaH2PO4, pH 4.5 and 6.8; and Hepes Buffer (HEPES-pH 7.4) 10 mM HEPES, 150 mM NaCl, pH 7.4. Control compounds pyrene, estriol and propranolol HCl are also assessed. Plates are spun and then mixed for 1 minute, and the absorbance is read using a Tecan Safire II to read wavelengths in the visible range (490, 535, and 650 nm) at four locations per well, reflecting the degree of turbidity present. The average optical density for each wavelength in each well is graphed vs. compound concentration, and the concentration at which the curve crosses a threshold O.D. of 0.01 for each wavelength is reported as the endpoint turbidity assay result. The average of the three wavelengths is used to compare turbidity of compounds. Compounds are considered to have low solubility if the threshold concentration is <31.3 04, moderate solubility if the threshold concentration is 31.3 μM to 250 μM, and high solubility if the threshold concentration is >250 μM.

[4] = molecular target: CYP2D6 (Homo sapiens, UniProt P10635); test: CYP2D6 inhibition (fluorescent substrate); type: in vitro ADME; settings: CYP2D6, AMMC substrate; read-out: Cyp IC50 2D6
Chain of CYP2D6 (P10635 whole entry): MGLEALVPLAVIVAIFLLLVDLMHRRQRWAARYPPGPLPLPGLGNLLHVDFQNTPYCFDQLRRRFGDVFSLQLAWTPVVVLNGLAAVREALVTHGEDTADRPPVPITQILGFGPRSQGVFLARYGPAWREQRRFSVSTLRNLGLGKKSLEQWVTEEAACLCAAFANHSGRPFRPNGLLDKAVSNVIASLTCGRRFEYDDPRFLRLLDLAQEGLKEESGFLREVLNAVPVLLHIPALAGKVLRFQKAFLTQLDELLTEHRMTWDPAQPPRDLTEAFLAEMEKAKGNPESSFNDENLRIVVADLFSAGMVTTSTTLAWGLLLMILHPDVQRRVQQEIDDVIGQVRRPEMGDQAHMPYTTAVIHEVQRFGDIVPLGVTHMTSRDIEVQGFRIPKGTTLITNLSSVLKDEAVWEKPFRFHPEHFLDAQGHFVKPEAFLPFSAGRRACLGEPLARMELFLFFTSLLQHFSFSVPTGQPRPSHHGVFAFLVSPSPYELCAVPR
Method: as §1, §2

Chain of B-Raf V600E (P15056 whole entry V600E): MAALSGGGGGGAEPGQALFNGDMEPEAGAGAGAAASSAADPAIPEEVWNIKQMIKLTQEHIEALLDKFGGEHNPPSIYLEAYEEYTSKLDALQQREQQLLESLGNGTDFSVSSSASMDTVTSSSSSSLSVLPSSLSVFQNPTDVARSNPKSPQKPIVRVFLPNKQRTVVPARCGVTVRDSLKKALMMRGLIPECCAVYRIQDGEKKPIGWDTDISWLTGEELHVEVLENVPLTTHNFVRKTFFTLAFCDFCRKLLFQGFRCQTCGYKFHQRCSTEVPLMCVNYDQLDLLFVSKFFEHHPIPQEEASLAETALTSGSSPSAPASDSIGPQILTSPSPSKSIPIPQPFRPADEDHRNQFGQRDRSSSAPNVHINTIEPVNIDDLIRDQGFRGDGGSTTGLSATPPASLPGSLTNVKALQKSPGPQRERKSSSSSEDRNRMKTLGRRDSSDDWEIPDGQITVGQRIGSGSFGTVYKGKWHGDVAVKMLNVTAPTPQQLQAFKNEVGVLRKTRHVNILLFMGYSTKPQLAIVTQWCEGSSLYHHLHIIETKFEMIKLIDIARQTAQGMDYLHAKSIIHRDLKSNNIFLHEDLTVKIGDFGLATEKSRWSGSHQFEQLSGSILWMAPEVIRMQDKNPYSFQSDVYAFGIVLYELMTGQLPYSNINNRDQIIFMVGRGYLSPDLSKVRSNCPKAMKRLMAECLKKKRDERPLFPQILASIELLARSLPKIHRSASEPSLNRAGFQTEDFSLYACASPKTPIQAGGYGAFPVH

Structure (SMILES) | IC50 [1] [nM] | IC50 [2] [µM] | turbidity threshold (L, M, H) 7.4 [3] | turbidity threshold (L, M, H) 4.5 [3] | turbidity threshold (L, M, H) 6.8 [3] | turbidity threshold (L, M, H) 1.4 [3] | IC50 [4] [µM]
Cc1cnc2[nH]cc(C(=O)c3c(F)ccc(NS(=O)(=O)c4ccccc4F)c3F)c2c1 [P-2014, N-[2,4-Difluoro-3-(5-methyl-1H-pyrrolo[2,3-b]pyridine-3-carbonyl)-phenyl]-2-fluoro-benzenesulfonamide] | < 10 | > 10 | M (moderate solubility if the threshold concentration is 31.3 μM to 250 μM) | M (moderate solubility if the threshold concentration is 31.3 μM to 250 μM) | M (moderate solubility if the threshold concentration is 31.3 μM to 250 μM) | L (low solubility if the threshold concentration is <31.3 04) | > 10
CCCS(=O)(=O)Nc1ccc(F)c(C(=O)c2c[nH]c3ncc(-c4cnc(N5CCOCC5)nc4)cc23)c1F [P-2197, Propane-1-sulfonic acid {2,4-difluoro-3-[5-(2-morpholin-4-yl-pyrimidin-5-yl)-1H-pyrrolo[2,3-b]pyridine-3-carbonyl]-phenyl}-amide] | < 10 | > 10 | L (low solubility if the threshold concentration is <31.3 04) | L (low solubility if the threshold concentration is <31.3 04) | L (low solubility if the threshold concentration is <31.3 04) | M (moderate solubility if the threshold concentration is 31.3 μM to 250 μM) | > 10
O=C(c1c(F)ccc(NS(=O)(=O)c2cc(F)ccc2F)c1F)c1c[nH]c2nccc(Cl)c12 [P-2018, N-[3-(4-Chloro-1H-pyrrolo[2,3-b]pyridine-3-carbonyl)-2,4-difluoro-phenyl]-2,5-difluoro-benzenesulfonamide] | < 10 | > 10 | M (moderate solubility if the threshold concentration is 31.3 μM to 250 μM) | M (moderate solubility if the threshold concentration is 31.3 μM to 250 μM) | M (moderate solubility if the threshold concentration is 31.3 μM to 250 μM) | L (low solubility if the threshold concentration is <31.3 04) | > 10
CCCS(=O)(=O)Nc1ccc(F)c(C(=O)c2c[nH]c3ncc(-c4ccc(OC)nc4OC)cc23)c1F [P-2184, Propane-1-sulfonic acid {3-[5-(2,6-dimethoxy-pyridin-3-yl)-1H-pyrrolo[2,3-b]pyridine-3-carbonyl]-2,4-difluoro-phenyl}-amide] | < 100 | > 10 | L (low solubility if the threshold concentration is <31.3 04) | L (low solubility if the threshold concentration is <31.3 04) | L (low solubility if the threshold concentration is <31.3 04) | L (low solubility if the threshold concentration is <31.3 04) | > 10
CCCS(=O)(=O)Nc1ccc(F)c(C(=O)c2c[nH]c3ncc(-c4ccc(S(C)(=O)=O)cc4)cc23)c1F [P-2183, Propane-1-sulfonic acid {2,4-difluoro-3-[5-(4-methanesulfonyl-phenyl)-1H-pyrrolo[2,3-b]pyridine-3-carbonyl]-phenyl}-amide] | < 10 | 5 to 10 | L (low solubility if the threshold concentration is <31.3 04) | L (low solubility if the threshold concentration is <31.3 04) | L (low solubility if the threshold concentration is <31.3 04) | L (low solubility if the threshold concentration is <31.3 04) | > 10
CCCS(=O)(=O)Nc1ccc(F)c(C(=O)c2c[nH]c3ncc(-c4ccc(SC)nc4)cc23)c1F [P-2187, Propane-1-sulfonic acid {2,4-difluoro-3-[5-(6-methylsulfanyl-pyridin-3-yl)-1H-pyrrolo[2,3-b]pyridine-3-carbonyl]-phenyl}-amide] | < 10 | > 10 |  |  |  |  | > 10
